Data taken from patent US12059429B2, “Hornerin: a novel non-VEGF mediated angiogenic protein expressed in both human and mouse angiogenic endothelial cells and human pancreatic cancer cells” (University of Virginia Patent Foundation, priority 2018, dated 2024).

Columns and labels:
L3.6pl PDAC cells = assay: Subcutaneous L3.6pl PDAC xenograft tumor volume; assay type: in vivo, mouse
Experimental: A tumor sample size of four was determined by power analysis based on prior tumor xenograft studies. For our 80% power analysis, the difference between means was 200 mm^3, standard deviation was 100 mm^3, and P-value<0.05 (P<0.05). Tumors were measured at least twice weekly until their volume was >1000 mm^3, at which point animals were euthanized. Tumor size data were collected from each tumor, with the exception of one tumor in the combination treatment experiment that was identified with 90% confidence via Grubb's Outlier Test. The following number of mice in each treatment cohort was evaluated for tumor outgrowth: (Scr siRNA/ctrl., N=15; Hrnr siRNA/ctrl., N=14; Scr siRNA/AV-951, N=8; Hrnr siRNA/AV-951, N=8).
For tumor implantation, L3.6pl cells were grown under normal culture conditions for 72 hours prior to being trypsinized and enumerated. The cells were suspended in aliquots of 500,000 cells/50 μL Hanks Balanced Salt Solution (HBSS; Corning, Manassas, VA, USA) and 50 μL of Matrigel (BD Biosciences, San Jose, CA, USA) was added to each aliquot of cells prior to implantation. The cell-Matrigel slurry was injected subcutaneously into nu/nu mice on the flanks or orthotopically into the pancreas (Seaman et al., 2011). The injection site for subcutaneous tumors was monitored daily for growth and tumor volume was calculated form caliper measurements using the formula (width^2×length)/2.
The VEGFR inhibitor AV-951 (Selleck Chemicals, Houston, TX, USA) was suspended in 0.5% methocel+0.5% Tween-20 in HBSS to increase viscosity and 50 μL of 1.0 mg/kg AV-951 or VC solution was administered once daily by oral gavage (22-gauge gavage needle (Kent Scientific, Torrington, CT, USA) connected to a 1 mL syringe). […] To prepare Hrnr siRNA and Silencer Select Negative Control #1 Scr siRNA (Invitrogen; catalog number 4390844) for injection, 10 μg of hornerin or control siRNA were combined with in vivo-jetPEI transfection reagent (Polyplus, France) in solution with 5% glucose per Polyplus instructions (total volume 50 μL). After a 30 minutes incubation, the siRNA solutions were injected slowly into the center of the tumor. A second independent hornerin knockdown experiment was conducted using a pooled set of three unique mouse Hrnr siRNA duplexes (5′-[…]-3′ (SEQ ID NO: 50); 5 ‘-[…]-3’ (SEQ ID NO: 51); 5 ‘-[…]-3’ (SEQ ID NO: 52)) and Scr siRNA (Origene, Rockville, MD, USA). The reagent preparation and injection protocol were similar to that described above.

tumor vessels = assay: Tumor vessel parameters in L3.6pl tumor sections (CD34, ACTA2, RAVE analysis); assay type: in vivo, mouse; conditions: four-group combination experiment, vs control
Experimental: Following completion of the treatment schedule, the mice were killed, cardiac perfused, and the tumors were excised and fixed in formalin overnight. The tumors were paraffin embedded and cut into 5 (thin) or 50 μm (thick) sections. Tumor vessel parameters were evaluated in the following number of tumors for each treatment cohort: (Scr siRNA/ctrl., N=10; Hrnr siRNA/ctrl., N=10; Scr siRNA/AV-951, N=4; Hrnr siRNA/AV-951, N=4).
Tumor sections were deparaffinized, rehydrated, heated in antigen retrieval solution (Vector), blocked for 30 minutes in blocking buffer, and incubated with anti-CD34 antibody (Abcam, ab8158, clone MEC14.7; 1:100) in blocking buffer overnight at 4° C. The sections were then incubated with goat anti-rat FITC secondary antibody (Abcam, ab6840; 1:100) in blocking buffer prior to mounting with Prolong Gold Antifade reagent (Invitrogen). Anti-actin, α-smooth muscle Cy3 antibody (Sigma, C6198, clone 1A4; 1:200) was added to the primary antibody solution if assaying for alpha-smooth muscle actin. To compare hornerin expression in vessels and tumor tissue treated with Hrnr siRNA and Scr siRNA, thin paraffin sections were deparaffinized and stained with anti-CD34 and anti-hornerin antibodies described. Images were collected using a Nikon TE 2000-E2 microscope (Nikon Instruments) equipped with a Melles Griot Argon Laser System (Melles Griot, Carlsbad, CA, USA) and a Nikon D-Eclipse C1 confocal attachment and analyzed by Measurement Tool in Image J. To measure the relative hornerin expression in tumor vessels, three vessel segments per image were isolated and their mean intensity and area were measured and recorded. A weighted mean intensity was calculated to correct for differences in selected area. To measure the relative hornerin expression in tumor tissue, the mean intensity from three square sections (75×75 pixel) of tumor tissue per image was measured and recorded.
(§1) Vessel parameters were measured using RAVE software (Seaman et al., 2011). For detection of proliferation and apoptosis, the sections were incubated with the primary antibodies anti-Ki67 (Abcam, ab15580; 1:200) or anti-cleaved caspase 3 (Cell Signaling, 9661; 1:200), respectively, overnight at 4° C. followed by incubation with anti-rabbit AF594 (Abcam, 150080; 1:200).

tumor vascularity = assay: DCE-MRI and Ktrans measurement of L3.6pl tumors; assay type: in vivo, mouse; conditions: AV-951 1.0 mg/kg once daily oral gavage; AV-951 only vs control; combination vs AV-951
Experimental: To assess the in vivo function of tumor vascularity, DCE-MRI was performed on a 7.0 T Clinscan small animal imaging system (Bruker, Ettlingen, Germany) using a 30 mm inner-diameter birdcage radiofrequency coil. Mice (N=7) were imaged prior to treating tumors with Hrnr and Scr siRNA and again 6 days after treatment. Mice treated with the VEGFR inhibitor AV-951 (N=5) were image pre-siRNA treatment and 6 days posttreatment. Mice were anesthetized with 1.25% isoflurane anesthesia, which was maintained during imaging. Respiration and ECG were monitored during imaging using an MRI-compatible system (SA Instruments, Stony Brook, NY, USA). An indwelling tail vein catheter was established for administration of the gadolinium contrast agent Gd-DTPA, which is required in DCE imaging. Mice were placed supine in the imaging system, and body temperature was maintained at 36° C.±1° C. using circulating, temperature controlled water. Tumors were localized using a spin-echo imaging sequence, and an imaging plane that transected both tumors was chosen for DCE imaging.
A dual-Gd-bolus DCE-MRI acquisition strategy (Christian et al., 2004) was employed, which uses a low dose of contrast agent to accurately acquire the undistorted Gd concentration vs. time curve in the blood pool and a higher dose of contrast agent to acquire the Gd concentration vs. time curve in the tumor with high signal-to-noise ratio, since Gd-DTPA is known to have signal saturation effects at high doses in the blood pool (Christian et al., 2004). […]

L3.6pl tumors = assay: Ki67 and cleaved caspase 3 immunofluorescence in tumor sections; assay type: in vivo, mouse; conditions: day 15 tumor sections
Experimental: as §1

tumor vasculature = assay: Photoacoustic microscopy of tumor vasculature; assay type: in vivo, mouse; conditions: day 12
Description: Using an established PAM system (Wang & Hu, 2012; Ning et al., 2015a; Ning et al., 2015b), the tumor vasculature was characterized in vivo. Two laser wavelengths, 532 and 559 nm, were used to simultaneously quantify microvascular diameter, oxygen saturation, and blood flow at the same spatial scale (Ning et al., 2015a). The applied optical energies were 100 and 75 nJ, which are below the maximum permissible exposure energy. Throughout the experiment, mice were maintained under anesthesia with 1.5% vaporized isoflurane and the body temperature was kept at 37° C. All experimental procedures were carried out in conformity with the laboratory animal protocol approved by the Animal Care and Use Committee at the University of Virginia.

hornerin = assay: Immunoblot of hornerin in HUVECs treated with growth factors; assay type: cell-based, human; conditions: 24 hours treatment; growth factors at published B-max concentrations, EGF at increasing concentrations
Experimental: HUVECs were cultured in 10 cm dishes for 24 hours prior to a change to media containing VEGF (at B-max concentration), TCM, or VC. After 24 hours treatment, the cells were washed with DPBST two times and lysed with radioimmunoprecipitation assay (RIPA) buffer (Thermo Scientific). Lysate protein concentrations were measured by the bicinchoninic acid assay (Pierce, Waltham, MA, USA) and equivalent amounts of protein were loaded into precast 4-15% tris-glycine eXtended (TGX) polyacrylamide gels (Bio-Rad, Hercules, CA, USA). The proteins were resolved by electrophoresis and transferred to nitrocellulose membranes using the iBlot system (Invitrogen, Carlsbad, CA, USA). The membranes were then washed in Tris-buffered saline+1% Tween-20 (TBST), blocked for 30 minutes in TBST+2% milk solution, and incubated overnight at 4° C. with primary antibodies anti-hornerin (Abcam, Cambridge, UK, ab78909; (1:1000)) and anti-HSP90 (Cell Signaling Technology, Danvers, MA, USA, 4877; (1:1000)). The following day the membranes were washed and subsequently incubated with the secondary antibodies anti-goat HRP (R&D Systems, Minneapolis, MN, USA, HAF109; 1:5000) and anti-rabbit HRP (GE Healthcare, NA934V; 1:5000) for 45 minutes at RT. […]
Major constituents of TCM were determined using a Human Angiogenesis Antibody Array (Affymetrix, Santa Clara, CA, USA) per manufacturer's instructions. […]

Compound	tumor volume decrease compared to control-treated animals (L3.6pl PDAC cells; day 5 post implantation, 1.0 mg/kg AV-951 once daily oral gavage)	reduction in tumor volume (discussion summary) (L3.6pl PDAC cells; monotherapy or combined therapies)	number of vessels per field (tumor vessels)	vessel morphology (tumor vessels)	Ktrans values (in words) (tumor vascularity)	cleaved caspase 3 levels in tumors relative to control (L3.6pl tumors)	tumor blood hemoglobin levels (tumor vasculature)	tumor blood oxygen saturation compared to control (tumor vasculature)	hornerin expression in HUVECs (hornerin)
COc1cc2nccc(Oc3ccc(NC(=O)Nc4cc(C)on4)c(Cl)c3)c2cc1OC [AV-951, 1-[2-chloro-4-(6,7-dimethoxyquinolin-4-yl)oxyphenyl]-3-(5-methyl-1,2-oxazol-3-yl)urea, reference compound]	2.3 fold	two-fold	fewer vessels were observed	morphologically similar to control vessels	decrease	two-fold increase	remained unchanged	1.5 fold	
bFGF: growth factor found in TCM, added to HUVECs at published B-max concentration									might stimulate hornerin expression
